# Patent US20170128483A1, “HOST DEPENDENCY FACTORS AS TARGETS FOR ANTIVIRAL THERAPY” (Ruprecht-Karls-Universitat Heidelberg, priority 2014, published 2017)
# Where a name gives a salt, the structure may show the parent alone. Read-outs that look alike come from different tables or passages of the source.
# How the values were obtained:
# DENV-2 [1] = experiment: Virus yield inhibition assay, DENV-2 in Huh7 cells, titers by plaque assay; settings: for Maximum effect on DENV replication (in words) / Emax: Huh7, DENV-2 MOI 0.1, 48 h; for Emax / EC50: Dengue virus; for Emax: DENV2, Huh-7, 48 h
# DENV-1 = experiment: Virus yield inhibition assay, DENV-1 in Huh7 cells; assay type: cell-based, Dengue virus; settings: 200 μM, Huh7, 48 h
# From the text: (§1) Given the only 62-67% of amino acid conservation among DENV serotypes (Kyle & Harris 2008), the different serotypes might not be equally dependent on the same host factors for their replication.
# primary human monocytes = experiment: Viability of primary human monocytes (ATP content); assay type: cell-based; settings: 48 h
# [2] = Cell viability of Huh7 cells (ATP content / F-Luc activity); settings: human
# DENV-4 = experiment: Virus yield inhibition assay, DENV-4 in Huh7 cells; assay type: cell-based, Dengue virus; settings: 200 μM, Huh7, 48 h
# From the text: as §1
# DENV-2 [3] = experiment: Virus yield inhibition, DENV-2 in primary human monocytes, plaque assay; assay type: cell-based; settings: Dengue virus, DENV2, Monocyte
# Method: Primary human monocytes isolated from peripheral blood from healthy donors were infected with DENV-2 at an MOI of 10 PFU/cell in the presence of the drug.
# Peripheral blood samples from three healthy donors were collected in EDTA tubes. The blood was then diluted with 2 volumes of DPBS without calcium and without magnesium (PAN Biotech) and carefully layered onto Ficoll-hypaque (PAN Biotech). The blood was then subjected to centrifugation at 700 g, without brakes. The interphase cells containing the peripheral blood mononuclear cells (PBMCs) were aspirated, transferred to a clean tube and washed three times with DPBS. CD14+ monocytes were isolated using MicroBeads conjugated to monoclonal anti-human CD14 antibodies (MACS Miltenyi Biotec) according to the manufacturer's instructions, with some modifications. Briefly, 10 μl of Microbeads were incubated with 1×10^7 cells for 15 min at 4° C. After washing with DPBS magnetic separation of CD14+ monocytes was performed using an autoMACS Separator. The purity of the isolated monocytes (89.8% for donor 1, 94.8% for donor 2 and 97.7% for donor 3) was corroborated by FACS staining using anti-CD14 antibodies.
# Identification of host factors using RNAi may depend to a large extent on the cellular system chosen to perform the screen, what argues for the need of testing the selected hit candidates in cellular systems more representative of the infection in nature. […] The impact of the drug on virus production was assessed by plaque assay 48 h after infection.
# DENV(GND)sg-R2A = assay type: cell-based, Dengue virus; settings: 200 μM, initial 10 h of transfection
# DENVTCP = experiment: Time-of-addition with single-round DENVTCP particles in Huh7 cells, Rluc; settings: 200 μM, readout 48 h
# DENVsg reporter replicon = experiment: microbe, parasite or virus in culture; assay type: cell-based, Dengue virus
# DENV-3 = experiment: Virus yield inhibition assay, DENV-3 in Huh7 cells; assay type: cell-based, Dengue virus; settings: 200 μM, Huh7, 48 h
# From the text: as §1
# PPARα = molecular target: T1, PPARα (Homo sapiens, UniProt Q07869); settings: antagonist; cited from earlier work
# T1 sequence (Q07869 1-468): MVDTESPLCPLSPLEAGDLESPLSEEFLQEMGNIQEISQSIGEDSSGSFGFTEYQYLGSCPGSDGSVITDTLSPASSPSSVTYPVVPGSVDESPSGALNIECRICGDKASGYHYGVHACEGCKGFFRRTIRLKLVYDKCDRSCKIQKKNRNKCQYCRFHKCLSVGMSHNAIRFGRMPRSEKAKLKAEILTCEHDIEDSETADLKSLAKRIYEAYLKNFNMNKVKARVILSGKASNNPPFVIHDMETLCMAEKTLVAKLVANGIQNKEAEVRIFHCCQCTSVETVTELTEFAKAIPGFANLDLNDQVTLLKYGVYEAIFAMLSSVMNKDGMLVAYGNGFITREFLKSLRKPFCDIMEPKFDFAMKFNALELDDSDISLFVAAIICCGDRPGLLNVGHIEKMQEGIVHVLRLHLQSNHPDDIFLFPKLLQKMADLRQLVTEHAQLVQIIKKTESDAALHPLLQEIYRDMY
# PPARγ = molecular target: T2, PPARγ (Homo sapiens, UniProt P37231); settings: antagonist; cited from earlier work
# T2 sequence (P37231 1-505): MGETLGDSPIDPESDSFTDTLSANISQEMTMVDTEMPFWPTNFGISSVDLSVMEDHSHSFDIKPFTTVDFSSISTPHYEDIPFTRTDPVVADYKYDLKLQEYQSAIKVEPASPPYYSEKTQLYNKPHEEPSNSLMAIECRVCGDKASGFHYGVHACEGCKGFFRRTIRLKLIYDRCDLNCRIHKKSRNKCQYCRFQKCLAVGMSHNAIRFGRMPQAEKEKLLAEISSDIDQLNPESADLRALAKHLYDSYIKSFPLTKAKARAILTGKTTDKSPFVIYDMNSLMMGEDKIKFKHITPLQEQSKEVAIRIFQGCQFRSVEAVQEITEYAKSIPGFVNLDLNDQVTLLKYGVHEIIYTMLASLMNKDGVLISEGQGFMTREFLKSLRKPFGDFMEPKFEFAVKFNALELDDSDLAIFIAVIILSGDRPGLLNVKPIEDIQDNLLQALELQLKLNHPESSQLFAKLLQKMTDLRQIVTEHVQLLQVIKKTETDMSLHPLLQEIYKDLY
# [4] = concentration per compound as in Table 1
# [5] = read-out: Maximum effect on DENV replication (inhibition), inhibition of virus production, concentration per compound as in Table 1 column 'Concentration used (FIG. 3B)'
smiles,measurement,setting,value
"Cl.N=C(N)CCl [2CA, 2-chloroethanimidamide hydrochloride]",inhibition on virus production,"DENV-2 [1]; 50 μM, Huh7, 48 h",77%
"O=C(NCc1ccc2c(c1)OCO2)c1c(Cl)cccc1Cl [Alda-1, N-(1,3-Benzodioxol-5-ylmethyl)-2,6-dichlorobenzamide]",Maximum effect on DENV replication (in words),DENV-2 [1]; [4],inactive
"CN1C2CCC1CC(OC(=O)C(CO)c1ccccc1)C2 (stereo not drawn) [Atropine, α-(Hydroxymethyl)benzeneacetic acid 8-methyl-8-azabicyclo[3.2.1]oct-3-yl ester]",Maximum effect on DENV replication (in words),DENV-2 [1]; [4],inactive
"Oc1cc2c(cc1O)CN(C(=S)NCCc1ccc(Cl)cc1)CCC2 [Capsazepine, N-[2-(4-Chlorophenyl)ethyl]-1,3,4,5-tetrahydro-7,8-dihydroxy-2H-2-benzazepine-2-carbothioamide]",Maximum effect on DENV replication (in words),DENV-2 [1]; [4],inactive
"N=C(CCl)NCCC[C@H](NC(=O)c1ccccc1)C(N)=O [Cl-amidine, N-α-benzoyl-N5-(2-chloro-1-iminoethyl)-L-ornithine amide]",reduction on virus production,DENV-1,10 fold
same,cytotoxicity for primary human monocytes,primary human monocytes,not cytotoxic
same,CC50 at 48 h,[2],> 1 mM
same,reduction on virus production,DENV-4,10 fold
same,EC50,"DENV-2 [3]; 48 h, monocytes of Donor 1, MOI 10, 48 h, read-out: EC50",16.9 µM
same,EC50,"DENV-2 [3]; 48 h, monocytes of Donor 2, MOI 10, 48 h, read-out: EC50",24.6 µM
same,EC50,"DENV-2 [3]; 48 h, monocytes of Donor 3, MOI 10, 48 h, read-out: EC50",22.9 µM
same,EC50,"DENV-2 [3]; three donors, read-out: EC50 values among different donors",17 to 25 µM
same,luciferase activity vs DMSO-treated cells,DENV(GND)sg-R2A,no difference in luciferase activity
same,time of addition after infection up to which inhibitory effect remained significant,DENVTCP,up to 8 h
same,luciferase activity vs DMSO-treated cells,"DENVsg reporter replicon; 200 μM, initial 10 h of transfection",no difference in luciferase activity
same,EC50,"DENVsg reporter replicon; Dengue virus, Huh-7, 48 h, read-out: EC50 (R-Luc activity)",16.5 ± 2.49 µM
same,reduction on virus production,DENV-3,10 fold
same,reduction on virus production,"DENV-2 [1]; 200 μM, Huh7, 48 h",10 fold
same,Emax,DENV-2 [1]; [5],92.7%
same,EC50,"DENV-2 [1]; DENV2, Huh-7, Huh7 transduced with shNT#2",17.1 µM
same,EC50,"DENV-2 [1]; DENV2, Huh-7, Huh7 transduced with shPADI4#4 (PADI4 silenced)",1.18 µM
same,EC50,"DENV-2 [1]; DENV2, Huh-7, read-out: EC50 ± SD",215 ± 19 µM
same,EC50,"DENV-2 [1]; DENV2, Huh-7, read-out: EC50 ± SD, Huh7-Empty control cell line",19.3 ± 2.36 µM
same,EC50,"DENV-2 [1]; DENV2, Huh-7, read-out: EC50 ± SD, Parental Huh7, 2 h pretreatment, 48 h",16.1 µM
same,inhibition of virus titers,"DENV-2 [1]; highest concentration tested, Huh7",up to 100 fold
"O=c1c(-c2ccc(O)cc2)coc2cc(O[C@@H]3O[C@H](CO)[C@@H](O)[C@H](O)[C@H]3O)ccc12 [Daidzin, Daidzein-7-O-β-D-glucopyranoside]",Maximum effect on DENV replication (in words),DENV-2 [1]; [4],inactive
"COC(=O)c1sccc1S(=O)(=O)Nc1ccc(Nc2ccccc2)cc1OC [GSK0660, 3-(((2-Methoxy-4-(phenylamino)phenyl)amino)sulfonyl)-2-thio-phenecarboxylic acid methyl ester]",IC50,PPARα,> 10 µM
same,IC50,PPARγ,> 10 µM
same,Emax,DENV-2 [1]; [5],~62%
Cc1cc(SCc2sc(-c3ccc(C(F)(F)F)c(F)c3)nc2C)ccc1OCC(=O)O [GW0742],Emax,"DENV-2 [1]; read-out: Maximum effect on DENV replication (enhancement), enhancement of virus production, concentration per compound as in Table 1",~48%
"C=C(C)C1CNC(C(=O)O)C1CC(=O)O (centres unmarked) [Kainic acid monohydrate, 2-Carboxy-3-carboxymethyl-4-isopropenylpyrrolidine]",Maximum effect on DENV replication (in words),DENV-2 [1]; [4],inactive
"CC1CCC(C(C)C)C(O)C1 (centres unmarked) [Menthol, 2-Isopropyl-5-methylcyclohexanol]",Maximum effect on DENV replication (in words),DENV-2 [1]; [4],inactive
"COc1ccccc1CNCCCCCCNCCCCCCCCNCCCCCCNCc1ccccc1OC [Methoctramine hydrate, N,N,′-bis[6-[[(2-Methoxyphenyl)methyl]amino]hexyl]-1,8-octane diaminetetrahydrochloride hydrate]",Maximum effect on DENV replication (in words),DENV-2 [1]; [4],inactive
"C[N+](C)(C)CC#CCN1CCCC1=O.[I-] [Oxotremorine M, N,N,N,-trimethyl-4-(2-oxo-1-pyrrolidinyl)-2-butyn-1-ammonium iodide]",Maximum effect on DENV replication (in words),DENV-2 [1]; [4],inactive
"COc1ccc(NC(=O)C2C[C@H](C)CC[C@H]2C(C)C)cc1 (stereo partly drawn) [WS-12, (2S,5R)-2-Isopropyl-N-(4-methoxyphenyl)-5-methylcyclohexane carboximide]",Maximum effect on DENV replication (in words),DENV-2 [1]; [4],inactive
